Experiments:
Experiment in all cases: Test E pre-/postemergence herbicide test
[1] = tested on: guineagrass; type: in vivo, Panicum maximum
How it was run: (§1)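 Each species was compared with untreated controls 12 to 14 days after greenhouse application and assigned a visual score from 0 (no effect) to 100 (complete control). Applications were preemergence to seeded soil or postemergence to 1- to 4-leaf plants, using a solvent-plus-surfactant formulation.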

[2] = tested on: hairy beggarticks; type: in vivo, Bidens radiata; details: Preemergence
Source text: Seeds of plant species selected from bipinnate beggarticks (Bidens bipinnata L.), hairy beggarticks (Bidens radiata Thuill.), bermudagrass (Cynodon dactylon (L.) Pers.), Surinam grass (Urochloa decumbens (Staph) R. D. Webster, previously named Brachiaria decumbens Stapf), large crabgrass (Digitaria sanguinalis (L.) Scop.), green foxtail (Setaria viridis (L.) P. Beauv.), goosegrass (Eleusine indica (L.) Gaertn.), johnsongrass (Sorghum halepense (L.) Pers.), kochia (Kochia scoparia (L.) Schrad.), pitted morningglory (Ipomoea lacunosa L.), purple nutsedge (Cyperus rotundus L.), common ragweed (Ambrosia elatior L.), mustard (Brassica nigra (L.) W. D. J. Koch), guineagrass (Panicum maximum Jacq.), dallisgrass (Paspalum dilatatum Poir.), barnyardgrass (Echinochloa crus-galli (L). P. Beauv.), southern sandbur (Cenchrus echinatus L.), common sowthistle (Sonchus oleraceous L.), prickly sida (Sida spinosa L.), Italian ryegrass (Lolium multiflorum Lam.), common purslane (Portulaca oleracea L.), broadleaf signalgrass (Brachiaria platyphylla (Griseb.) Nash), common groundsel (Senecio vulgaris L.), common chickweed (Stellaria media (L.) Vill/Cyr.), tropical spiderwort (Commelina benghalensis L.), annual bluegrass (Poa annua L.), downy bromegrass (Bromus tectorum L.), itchgrass (Rottboellia cochinchinensis (L.) L.f.), quackgrass (Elytrigia repens (L.) Nevski), Canada horseweed (Erigeron Canadensis L.), field bindweed (Convolvulus arvensis L.), spotted spurge (Euphorbia maculata L.), common mallow (Malva sylvestris (=s silvestris) L.), and Russian thistle (Salsola kali L. ssp. Ruthenica (Iljin) Soo) were planted and treated preemergence with test chemicals formulated in a non-phytotoxic solvent mixture which included a surfactant.
At the same time, plants selected from these weed species were treated with postemergence applications of some of the test chemicals formulated in the same manner. Plants ranged in height from 2 to 18 cm (1- to 4-leaf stage) for postemergence treatments. Treated plants and controls were maintained in a greenhouse for 12 to 14 days, after which time all species were compared to controls and visually evaluated. Plant response ratings, summarized in Table E, are based on a scale of 0 to 100 where 0 is no effect and 100 is complete control. A dash (-) response means no test result.

[3] = tested on: Surinam grass; type: in vivo, Urochloa decumbens
How it was run: as §1

[4] = tested on: common mallow; type: in vivo, Malva sylvestris
How it was run: as §1

[5] = tested on: common purslane; type: in vivo, Portulaca oleracea; details: scale 0 to 100
How it was run: as §1

[6] = tested on: goosegrass; type: in vivo, Eleusine indica
How it was run: as §1

[7] = tested on: common groundsel; type: in vivo, Senecio vulgaris; details: scale 0 to 100
How it was run: as §1

[8] = tested on: bermudagrass; type: in vivo, Cynodon dactylon
How it was run: as §1

[9] = Postemergence, 500 g ai/ha, scale 0 to 100
[10] = Postemergence, 250 g ai/ha, scale 0 to 100
[11] = Preemergence, 125 g ai/ha, scale 0 to 100
[12] = Preemergence, 250 g ai/ha, scale 0 (no effect) to 100 (complete control)
[13] = Preemergence, 375 g ai/ha, scale 0 (no effect) to 100 (complete control)
[14] = Preemergence, 500 g ai/ha, scale 0 (no effect) to 100 (complete control)
[15] = postemergence, 125 g ai/ha, scale 0 to 100
[16] = postemergence, 62 g ai/ha, scale 0 to 100
[17] = 250 g ai/ha, scale 0 (no effect) to 100 (complete control)
[18] = 375 g ai/ha, scale 0 (no effect) to 100 (complete control)
[19] = 500 g ai/ha, scale 0 (no effect) to 100 (complete control)
[20] = Preemergence, 62 g ai/ha, scale 0 to 100

## CCn1nc(C(C)(C)C)cc1C(=O)Nc1cc(C(=S)N(C)C)ccc1F [Compound 294]
[1]; [9]
  Plant response rating, Guineagrass: 85
[1]; [10]
  Plant response rating, Guineagrass: 80
[1]; [11]
  Plant response rating, Guineagrass: 90
[1]; [12]
  Plant response rating, Guineagrass: 100
[1]; [13]
  Plant response rating, Guineagrass: 100
[1]; [14]
  Plant response rating, Guineagrass: 100
[1]; [15]
  Plant response rating, Guineagrass: 70
[1]; [16]
  Plant response rating, Guineagrass: 50
[2]; 125 g ai/ha, scale 0 to 100
  Plant response rating, Beggarticks, Hairy: 100
[2]; [17]
  Plant response rating, Beggarticks, Hairy: 100
[2]; [18]
  Plant response rating, Beggarticks, Hairy: 100
[2]; [19]
  Plant response rating, Beggarticks, Hairy: 100
[3]; [9]
  Plant response rating, Surinam Grass: 85
[3]; [10]
  Plant response rating, Surinam Grass: 80
[3]; [11]
  Plant response rating, Surinam Grass: 95
[3]; [13]
  Plant response rating, Surinam Grass: 100
[3]; [14]
  Plant response rating, Surinam Grass: 100
[3]; [15]
  Plant response rating, Surinam Grass: 70
[3]; [16]
  Plant response rating, Surinam Grass: 30
[4]; [9]
  Plant response rating, Mallow: 100
[4]; [10]
  Plant response rating, Mallow: 50
[4]; [11]
  Plant response rating, Mallow: 40
[4]; [12]
  Plant response rating, Mallow: 40
[4]; [14]
  Plant response rating, Mallow: 80
[4]; [15]
  Plant response rating, Mallow: 40
[4]; [16]
  Plant response rating, Mallow: 20
[5]; Postemergence, 500 g ai/ha
  Plant response rating, Purslane: 90
[5]; Postemergence, 250 g ai/ha
  Plant response rating, Purslane: 90
[5]; postemergence, 125 g ai/ha
  Plant response rating, Purslane: 60
[5]; postemergence, 62 g ai/ha
  Plant response rating, Purslane: 10
[6]; [9]
  Plant response rating, Goosegrass: 85
[6]; [10]
  Plant response rating, Goosegrass: 80
[6]; [11]
  Plant response rating, Goosegrass: 95
[6]; [12]
  Plant response rating, Goosegrass: 95
[6]; [13]
  Plant response rating, Goosegrass: 100
[6]; [14]
  Plant response rating, Goosegrass: 100
[6]; [15]
  Plant response rating, Goosegrass: 60
[6]; [16]
  Plant response rating, Goosegrass: 50
[7]; Postemergence, 250 g ai/ha
  Plant response rating, Groundsel: 90
[7]; postemergence, 62 g ai/ha
  Plant response rating, Groundsel: 50
[8]; [9]
  Plant response rating, Bermudagrass: 75
[8]; [10]
  Plant response rating, Bermudagrass: 75
[8]; [11]
  Plant response rating, Bermudagrass: 90
[8]; [12]
  Plant response rating, Bermudagrass: 95
[8]; [13]
  Plant response rating, Bermudagrass: 95
[8]; [14]
  Plant response rating, Bermudagrass: 95
[8]; [15]
  Plant response rating, Bermudagrass: 50
[8]; [16]
  Plant response rating, Bermudagrass: 20

## CCc1nn(C(C)(C)C)cc1C(=O)Nc1cc(C(=O)N(C)C)ccn1 [Compound 293]
[1]; [11]
  Plant response rating, Guineagrass: 100
[1]; [12]
  Plant response rating, Guineagrass: 100
[1]; [13]
  Plant response rating, Guineagrass: 100
[1]; [14]
  Plant response rating, Guineagrass: 100
[2]; 125 g ai/ha, scale 0 to 100
  Plant response rating, Beggarticks, Hairy: 100
[2]; [17]
  Plant response rating, Beggarticks, Hairy: 100
[2]; [18]
  Plant response rating, Beggarticks, Hairy: 100
[2]; [19]
  Plant response rating, Beggarticks, Hairy: 100
[3]; [11]
  Plant response rating, Surinam Grass: 80
[3]; [13]
  Plant response rating, Surinam Grass: 100
[3]; [14]
  Plant response rating, Surinam Grass: 100
[4]; [11]
  Plant response rating, Mallow: 40
[4]; [12]
  Plant response rating, Mallow: 50
[4]; [13]
  Plant response rating, Mallow: 80
[4]; [14]
  Plant response rating, Mallow: 85
[6]; [11]
  Plant response rating, Goosegrass: 90
[6]; [12]
  Plant response rating, Goosegrass: 90
[6]; [13]
  Plant response rating, Goosegrass: 95
[6]; [14]
  Plant response rating, Goosegrass: 100
[8]; [11]
  Plant response rating, Bermudagrass: 90
[8]; [12]
  Plant response rating, Bermudagrass: 95
[8]; [13]
  Plant response rating, Bermudagrass: 95
[8]; [14]
  Plant response rating, Bermudagrass: 95

## CCn1nc(C2(C)CC2)cc1C(=O)Nc1cc(C(=O)N(C)C)ccc1F [Compound 299]
[1]; [9]
  Plant response rating, Guineagrass: 85
[1]; [10]
  Plant response rating, Guineagrass: 75
[1]; [20]
  Plant response rating, Guineagrass: 70
[1]; [11]
  Plant response rating, Guineagrass: 85
[1]; [12]
  Plant response rating, Guineagrass: 100
[1]; [14]
  Plant response rating, Guineagrass: 100
[1]; [15]
  Plant response rating, Guineagrass: 70
[1]; [16]
  Plant response rating, Guineagrass: 60
[2]; 62 g ai/ha, scale 0 to 100
  Plant response rating, Beggarticks, Hairy: 50
[2]; 125 g ai/ha, scale 0 to 100
  Plant response rating, Beggarticks, Hairy: 100
[2]; [17]
  Plant response rating, Beggarticks, Hairy: 100
[2]; [19]
  Plant response rating, Beggarticks, Hairy: 100
[3]; [9]
  Plant response rating, Surinam Grass: 90
[3]; [10]
  Plant response rating, Surinam Grass: 75
[3]; [11]
  Plant response rating, Surinam Grass: 95
[3]; [14]
  Plant response rating, Surinam Grass: 100
[3]; [15]
  Plant response rating, Surinam Grass: 75
[3]; [16]
  Plant response rating, Surinam Grass: 70
[4]; [9]
  Plant response rating, Mallow: 100
[4]; [10]
  Plant response rating, Mallow: 50
[4]; [20]
  Plant response rating, Mallow: 50
[4]; [11]
  Plant response rating, Mallow: 75
[4]; [12]
  Plant response rating, Mallow: 95
[4]; [14]
  Plant response rating, Mallow: 100
[4]; [15]
  Plant response rating, Mallow: 30
[4]; [16]
  Plant response rating, Mallow: 10
[5]; Postemergence, 500 g ai/ha
  Plant response rating, Purslane: 100
[5]; Postemergence, 250 g ai/ha
  Plant response rating, Purslane: 80
[5]; postemergence, 125 g ai/ha
  Plant response rating, Purslane: 75
[5]; postemergence, 62 g ai/ha
  Plant response rating, Purslane: 70
[6]; [9]
  Plant response rating, Goosegrass: 85
[6]; [10]
  Plant response rating, Goosegrass: 80
[6]; [20]
  Plant response rating, Goosegrass: 100
[6]; [11]
  Plant response rating, Goosegrass: 100
[6]; [12]
  Plant response rating, Goosegrass: 100
[6]; [14]
  Plant response rating, Goosegrass: 100
[6]; [15]
  Plant response rating, Goosegrass: 80
[6]; [16]
  Plant response rating, Goosegrass: 60
[7]; Postemergence, 250 g ai/ha
  Plant response rating, Groundsel: 100
[7]; postemergence, 125 g ai/ha
  Plant response rating, Groundsel: 70
[8]; [9]
  Plant response rating, Bermudagrass: 80
[8]; [10]
  Plant response rating, Bermudagrass: 70
[8]; [20]
  Plant response rating, Bermudagrass: 80
[8]; [11]
  Plant response rating, Bermudagrass: 100
[8]; [12]
  Plant response rating, Bermudagrass: 100
[8]; [14]
  Plant response rating, Bermudagrass: 95
[8]; [15]
  Plant response rating, Bermudagrass: 50
[8]; [16]
  Plant response rating, Bermudagrass: 40
